Test results taken from patent publication EP2508526A1, “Spiroalkene carboxamide derivatives and their use as chemokine receptor modulators” (Ares Trading SA, priority 2011, dated 2012).

biological target: T1, hCCR2b (Homo sapiens, UniProt P41597); test: CCR2 binding assay ([125I]MCP-1, SPA, CHO cell membranes); set-up: expressed in transfected cells; host or cells: CHO cells (membrane preparation); settings: membranes from CHO cells expressing hCCR2b, 50 pM [125I]MCP-1; read-out: Binding hCCR2 (Ki)
T1 sequence (P41597 1-360 isoform P41597-2): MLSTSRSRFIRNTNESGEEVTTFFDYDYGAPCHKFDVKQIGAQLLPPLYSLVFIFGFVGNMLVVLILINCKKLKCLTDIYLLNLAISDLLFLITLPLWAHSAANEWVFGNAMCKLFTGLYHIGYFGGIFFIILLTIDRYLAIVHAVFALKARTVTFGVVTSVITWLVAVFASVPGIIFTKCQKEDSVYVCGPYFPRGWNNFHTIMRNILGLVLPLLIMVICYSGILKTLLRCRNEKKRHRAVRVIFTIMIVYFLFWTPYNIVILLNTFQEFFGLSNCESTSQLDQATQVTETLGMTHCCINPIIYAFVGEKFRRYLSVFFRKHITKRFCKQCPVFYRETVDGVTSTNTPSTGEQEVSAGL
Description: Membranes were prepared from CHO cells expressing mCCR2b or hCCR2b for use in ligand binding studies. Cells were suspended in 50mM Tris-HCL, pH 7.4, 2 mM EDTA, 250 mM Sucrose and 1x Complete EDTA-free protease inhibitor cocktail (Roche) (Buffer A), and disrupted at 4°C by N2 decompression using a cell disruption bomb (Parr Instrument). Following centrifugation at 200 RCF for 10 min at 4°C, the supernatant was suspended in buffer A and centrifuged again at 19000 RPM (RCSC rotor SS34 code 05 Sorvall Instruments DUPONT) for 90 min at 4°C. The pellet was then suspended in 10 mM HEPES, pH 7.4, 1 mM EDTA, 250 mM Sucrose, and 1x Complete EDTA-free protease inhibitor cocktail (Buffer B) and homogenized using a potter. Membranes were flash frozen in liquid N2 and stored at -80°C. [125I] Monocyte Chemoattractant Protein -1 (MCP-1) (25µCi; Perkin Elmer) was added to test compounds in DMSO (1% final). Membranes and WGA SPA beads (GE Healthcare) were added to give a final volume of 100 µl in 96-well plates with assay concentrations of 50 pM or 100 pM [125I]Monocyte Chemoattractant Protein -1 (respectively for hCCR2b or mCCR2b), 50 mM HEPES, pH 7.4, 5 mM MgCl2, 1 mM CaCl2, 0.1% BSA, 1-5 µg/well of membranes and 100 µg/well of WGA SPA beads. Binding was performed for 90 min at RT with strong agitation of speed 5 (Heidolph Titramax 100 SCITEC) and bound radioactivity was measured on a PerkinElmer 1450 MicroBeta counter. Specific binding was calculated by subtracting remaining radioactivity in the presence of 1000-fold excess of unlabeled compound. Binding data were analyzed using the Genedata Screener® software.

Ki	SMILES
< 50 nM	CC1=C(C(=O)N2CCN(c3cccc(C(F)(F)F)c3)CC2)C2(CCN(C3CCCCC3)CC2)OC1=O [Compound 106, 8-cyclohexyl-3-methyl-4-({4-[3-(trifluoromethyl)phenyl]piperazin-1-yl}carbonyl)-1-oxa-8-azaspiro[4.5]dec-3-en-2-one]
< 50 nM	CC1=C(C(=O)N2CCc3ncc(C(F)(F)F)cc3C2)C2(CCN(CCF)CC2)OC1=O [Compound 116, 8-(2-fluoroethyl)-3-methyl-4-{[3-(trifluoromethyl)-7,8-dihydro-1,6-naphthyridin-6(5H)-yl]carbonyl}-1-oxa-8-azaspiro[4.5]dec-3-en-2-one]
500 to 2000 nM	CCN1CCC2(CC1)OC(=O)C(C)=C2C(=O)N1CCN(c2cc(C(F)(F)F)ccc2C)CC1 [Compound 96, 8-ethyl-3-methyl-4-({4-[2-methyl-5-(trifluoromethyl)phenyl]piperazin-1-yl}carbonyl)-1-oxa-8-azaspiro[4.5]dec-3-en-2-one]
500 to 2000 nM	CCN1CCC2(CC1)OC(=O)C(C)=C2C(=O)N1CCN(c2ccc(C(F)(F)F)cc2)CC1 [Compound 113, 8-ethyl-3-methyl-4-({4-[4-(trifluoromethyl)phenyl]piperazin-1-yl}carbonyl)-1-oxa-8-azaspiro[4.5]dec-3-en-2-one]
< 50 nM	CCN1CCCC2(CC1)OC(=O)C(C)=C2C(=O)N1CCc2ccc(C(F)(F)F)cc2C1 (stereo not shown) [Compound 120, 8-ethyl-3-methyl-4-{[7-(trifluoromethyl)-3,4-dihydroisoquinolin-2(1H)-yl]carbonyl}-1-oxa-8-azaspiro[4.6]undec-3-en-2-one]
50 to 100 nM	CCN1CCC2(CC1)OC(=O)C(C)=C2C(=O)NCc1cccc(C(F)(F)F)c1 [Compound 89, 8-ethyl-3-methyl-2-oxo-N-[3-(trifluoromethyl)benzyl]-1-oxa-8-azaspiror[4.5]dec-3-ene-4-carboxamide]
< 50 nM	CC1=C(C(=O)N2CCN(c3cccc(C(F)(F)F)c3)CC2)C2(CCN(C(C)C)C2)OC1=O (stereo not shown) [Compound 117, 7-isopropyl-3-methyl-4-({4-[3-(trifluoromethyl)phenyl]piperazin-1-yl}carbonyl)-1-oxa-7-azaspiro[4.4]non-3-en-2-one]

Further lines, the compound ahead of its results:

SMILES	Ki
CCN1CCC2(CC1)OC(=O)C(C)=C2C(=O)N1CCC(Nc2cccc(C(F)(F)F)c2)CC1 [Compound 59, 8-ethyl-3-methyl-4-[(4-{[3-(trifluoromethyl)phenyl]amino}piperidin-1-yl)carbonyl]-1-oxa-8-azaspiro[4.5]dec-3-en-2-one]	500 to 2000 nM
COc1ccc(C2(O)CCC(N3CCC4(CC3)OC(=O)C(C)=C4C(=O)N3CCc4ccc(C(F)(F)F)cc4C3)CC2)cn1 (stereo not shown) [Compound 25, 8-[4-hydroxy-4-(6-methoxypyridin-3-yl)cyclohexyl]-3-methyl-4-{[7-(trifluoromethyl)-3,4-dihydroisoquinolin-2(1H)-yl]carbonyl}-1-oxa-8-azaspiro[4.5]dec-3-en-2-one]	< 50 nM
COC1COCCC1N1CCC2(CC1)OC(=O)C(C)=C2C(=O)N1CCc2ccc(C(F)(F)F)cc2C1 (single isomer, unassigned; (-)) [Compound 40, (-)-1,5-anhydro-2,3-dideoxy-4-O-methyl-3-(3-methyl-2-oxo-4-{[7-(trifluoromethyl)-3,4-dihydroisoquinolin-2(1H)-yl]carbonyl}-1-oxa-8-azaspiro[4.5]dec-3-en-8-yl) -pentitol]	< 50 nM
CC1=C(C(=O)N2CCN(c3cccc(C(F)(F)F)c3)CC2)C2(CCN(CCc3cccc(Cl)c3)CC2)OC1=O [Compound 15, 8-[2-(3-chlorophenyl)ethyl]-3-methyl-4-({4-[3-(trifluoromethyl)phenyl]piperazin-1-yl}carbonyl)-1-oxa-8-azaspiro[4.5]dec-3-en-2-one]	< 50 nM
CCN1CCC2(CC1)OC(=O)C(C)=C2C(=O)N1CCc2cccc(C(F)(F)F)c2C1 [Compound 51, 8-ethyl-3-methyl-4-{[8-(trifluoromethyl)-3,4-dihydroisoquinolin-2 (1H)-yl]carbonyl}-1-oxa-8-azaspiro[4.5]dec-3-en-2-one]	500 to 2000 nM
CC1=C(C(=O)N2CCc3ccc(C(F)(F)F)cc3C2)C2(CCN(C3CCCS(=O)(=O)C3)CC2)OC1=O (stereo not shown) [Compound 39, 8-(1,1-dioxidotetrahydro-2H-thiopyran-3-yl)-3-methyl-4-{[7-(trifluoromethyl)-3,4-dihydroisoquinolin-2(1H)-yl]carbonyl}-1-oxa-8-azaspiro[4.5]dec-3-en-2-one]	50 to 100 nM
CCN1CCC2(CC1C)OC(=O)C(C)=C2C(=O)N1CCc2ccc(C(F)(F)F)cc2C1 (stereo not shown) [Compound 79, 8-ethyl-3,7-dimethyl-4-{[7-(trifluoromethyl)-3,4-dihydroisoquinolin-2(1H)-yl]carbonyl}-1-oxa-8-azaspiro[4.5]dec-3-en-2-one]	< 50 nM
CCN1CCC2(CC1)OC(=O)C(C)=C2C(=O)N1CCN(c2cccc(OC(F)(F)F)c2)CC1 [Compound 81, 8-ethyl-3-methyl-4-({4-[3-(trifluoromethoxy)phenyl]piperazin-1-yl}carbonyl)-1-oxa-8-azaspiro[4.5]dec-3-en-2-one]	< 50 nM
CCCN1CCC2(CC1)OC(=O)C(C)=C2C(=O)N1CCc2ccc(C(F)(F)F)cc2C1 [Compound 28, 3-methyl-8-propyl-4-{[7-(trifluoromethyl)-3,4-dihydroisoquinolin-2(1H)-yl]carbonyl}-1-oxa-8-azaspiro[4.5]dec-3-en-2-one]	< 50 nM
COC1COCCC1N1CCC2(CC1)OC(=O)C(C)=C2C(=O)N1CCc2ncc(C(F)(F)F)cc2C1 (single isomer, unassigned; (+)) [Compound 48, (+)-1,5-anhydro-3,4-dideoxy-2-O-methyl-3-(3-methyl-2-oxo-4-{[3-(trifluoromethyl)-7,8-dihydro-1,6-naphthyridin-6(5H)-yl]carbonyl}-1-oxa-8-azaspiro[4.5]dec-3-en-8-yl)-pentitol]	100 to 500 nM
CC1=C(C(=O)N2CCc3ccc(C(F)(F)F)cc3C2)C2(CCN(C3CCN(C)CC3)CC2)OC1=O [Compound 38, 3-methyl-8-(1-methylpiperidin-4-yl)-4-{[7-(trifluoromethyl)-3,4-dihydroisoquinolin-2(1H)-yl]carbonyl}-1-oxa-8-azaspiro[4.5]dec-3-en-2-one]	100 to 500 nM
CC1=C(C(=O)NCc2ccc(C(F)(F)F)cc2)C2(CCN(C(C)C)CC2)OC1=O [Compound 64, 8-isopropyl-3-methyl-2-oxo-N-[4-(trifluoromethyl)benzyl]-1-oxa-8-azaspiro[4.5]dec-3-ene-4-carboxamide]	500 to 2000 nM
CC1=C(C(=O)N2CCc3ncc(C(F)(F)F)cc3C2)C2(CCN(C3CCOC(C)C3)CC2)OC1=O (stereo not shown) [Compound 47, 3-methyl-8-(2-methyltetrahydro-2H-pyran-4-yl)-4-{[3-(trifluoromethyl)-7,8-dihydro-1,6-naphthyridin-6(5H)-yl]carbonyl}-1-oxa-8-azaspiro[4.5]dec-3-en-2-one]	< 50 nM
CC1=C(C(=O)N2CCc3ccc(C(F)(F)F)cc3C2)C2(CCN(C)CC2)OC1=O [Compound 27, 3,8-dimethyl-4-{[7-(trifluoromethyl)-3,4-dihydroisoquinolin-2(1H)-yl]carbonyl}-1-oxa-8-azaspiro[4.5]dec-3-en-2-one]	< 50 nM
COc1ccccc1CCN1CCC2(CC1)OC(=O)C(C)=C2C(=O)N1CCc2ccc(C(F)(F)F)cc2C1 [Compound 65, 8-[2-(2-methoxyphenyl)ethyl]-3-methyl-4-{[7-(trifluoromethyl)-3,4-dihydroisoquinolin-2(1H)-yl]carbonyl}-1-oxa-8-azaspiro[4.5]dec-3-en-2-one]	< 50 nM
